{"source": "patent US20040097534A1", "about": "“Composition for the protection and regeneration of nerve cells containing berberine derivatives” (EUGENBIO INC., priority 2001, published 2004)", "key": {"SH-SY5Y cells": {"test_system": "SH-SY5Y cells", "test": "MTT assay, SH-SY5Y survival under oxidative stress (H2O2)", "type": "cell-based, human", "protocol": "SH-SY5Y cells were treated with H2O2 for 30 minutes to induce cell injuries. 3 hours before the cells were treated with H2O2, berberine (0.25˜3.5 μg) was added to cell culture to examine its cell protection effect (see, Table 4 and FIG. 4b)."}, "HiB5 cells": {"test_system": "HiB5 cells", "settings": "for O.D. %: control = 100", "protocol": "Since HiB5 cells derived from white rat embryonic hippocampus were prepared by retroviral infection of temperature sensitive SV40 large T antigen, they divided at […], but the cell division stopped at 39° C. (body temperature of rat). […] Cell culture medium was prepared by adding a mixture of 10% FBS (fetal bovine serum), penicillin/streptomycin, glutamine and sodium pyruvate (0.11 g/L) to DMEM. On differentiating at 39° C., another cell culture medium was prepared by adding pyruvate to a serum-free medium (N2, containing DMEM/F12, insulin, transferrin, Putreseine and BSA; Botten Stein & Sato., 1979). PC12 cells and SH-SY5Y cells were cultured in DMEM supplemented with 10% FBS. In order to differentiate the cells, NGF or retinoic acid was added to a serum-free medium.\nCell injuries under condition of serum deprivation-induced stress and oxidative stress were measured by MTT assay. For MTT assay, Cells were seeded into N2 medium in an amount of 7.5×10^3 cells, and then a neurotoxin or a nerve growth factor was added thereto to differentiate the cells and then 0.1 volume of 4 mg/ml MTT was further added. The mixture was stored at 37° C. for 3-4 hours. After 100 μl of solubilization buffer was added to the mixture and then stored for 24 hours, O.D. values were measured by ELISA assay.\nHiB5 cell line used in this experiment was prepared by infecting primary cultured cells of temperature sensitive SV40 large T antigen in rat embryonic hippocampus (embryonic day 16) using retroviral vectors. The HiB5 cell line was divided at the permissive temperature (32° C.), but the cell division stopped at the non-permissive temperature (body temperature of rat: 39° C.). A small number of GABAegic neurons differentiated in the rat embryonic hippocampus (embryonic day 16), and glutamatergic pyramidal cell precursors still divided, some of which penetrated into dentate gyrus regions through dentate migration pathways in embryonic day 18 to differentiate into glutamatergic granule cells (Altman J., Bayer. S. A. (1990a) Prolonged sojourn of developing pyramidal cells in the intermediate zone of the hippocampus and their settling in the stratum pyramidale. J Comp Neurol. 301, 343-64.; Altman J., Das G. D. (1965) Post-natal origin of microneurones in the rat brain, Nature. 28, 953-956.). When cells stop their cell-division and start to differentiate in vivo, apoptosis occurs.\nIn order to evaluate the protective effect of berberine against apoptosis and the effect of increasing cell survival, HiB5 cells were cultured under conditions for initiation of differentiation. At this time, the culture was treated with berberine at various concentrations (50 ng/ml˜6 μg/ml). The protective effect of berberine against apoptosis was measured by MTT assay. A positive control group was treated with bFGF to block apoptosis, increase cell survival and induce the differentiation into nerve cells.\nSince HiB5 neuronal stem cells undergo cell death during the differentiation, the cells were considered as a negative control group. The percentage of O.D. values is determined for the groups treated with bFGF and berberine, respectively."}, "sciatic nerves": {"test_system": "sciatic nerves", "test": "Regeneration of crushed sciatic nerves (axons, myelin sheaths)", "type": "in vivo, Sprague-Dawley white rat", "settings": "3 weeks, berberine intraperitoneal"}, "[1]": {"settings": "N2, H2O2 + berberine 0.25 μg/ml"}}, "note": "Read-outs that look alike come from different tables or passages of the source."}
{"smiles": "COc1ccc2cc3[n+](cc2c1OC)CCc1cc2c(cc1-3)OCO2", "note": "[Berberine, 7,8,13,13a-tetradihydro-9,10-dimethoxy-2,3-(methylenedioxy) berbinium]", "values": [{"measurement": "Average (O.D. relative to H2O2 alone)", "setting": "SH-SY5Y cells; [1]", "value": 208, "unit": "%"}, {"measurement": "O.D.", "setting": "SH-SY5Y cells; [1]", "value": 0.116}, {"measurement": "Average (O.D. relative to H2O2 alone)", "setting": "SH-SY5Y cells; N2, H2O2 + berberine 1.5 μg/ml", "value": 287, "unit": "%"}, {"measurement": "O.D.", "setting": "SH-SY5Y cells; N2, H2O2 + berberine 1.5 μg/ml", "value": 0.16}, {"measurement": "Average (O.D. relative to H2O2 alone)", "setting": "SH-SY5Y cells; N2, H2O2 + berberine 3 μg/ml", "value": 344, "unit": "%"}, {"measurement": "O.D.", "setting": "SH-SY5Y cells; N2, H2O2 + berberine 3 μg/ml", "value": 0.192}, {"measurement": "Average (O.D. relative to H2O2 alone)", "setting": "SH-SY5Y cells; N2, H2O2 + berberine 3.5 μg/ml", "value": 228, "unit": "%"}, {"measurement": "O.D.", "setting": "SH-SY5Y cells; N2, H2O2 + berberine 3.5 μg/ml", "value": 0.127}, {"measurement": "O.D. %", "setting": "HiB5 cells; 50 ng", "value": 99, "unit": "%"}, {"measurement": "O.D. %", "setting": "HiB5 cells; 100 ng", "value": 103, "unit": "%"}, {"measurement": "O.D. %", "setting": "HiB5 cells; 250 ng", "value": 111, "unit": "%"}, {"measurement": "O.D. %", "setting": "HiB5 cells; 500 ng", "value": 140, "unit": "%"}, {"measurement": "O.D. %", "setting": "HiB5 cells; 700 ng", "value": 154, "unit": "%"}, {"measurement": "O.D. %", "setting": "HiB5 cells; 1 μg", "value": 153, "unit": "%"}, {"measurement": "O.D. %", "setting": "HiB5 cells; 1.5 μg", "value": 162, "unit": "%"}, {"measurement": "O.D. %", "setting": "HiB5 cells; 2 μg", "value": 173, "unit": "%"}, {"measurement": "O.D. %", "setting": "HiB5 cells; 2.5 μg", "value": 185, "unit": "%"}, {"measurement": "O.D. %", "setting": "HiB5 cells; 3 μg", "value": 190, "unit": "%"}, {"measurement": "O.D. %", "setting": "HiB5 cells; 4 μg", "value": 189, "unit": "%"}, {"measurement": "O.D. %", "setting": "HiB5 cells; 5 μg", "value": 191, "unit": "%"}, {"measurement": "O.D. %", "setting": "HiB5 cells; 6 μg", "value": 190, "unit": "%"}, {"measurement": "cell survival rate / protective effect against apoptosis, increase over control", "setting": "HiB5 cells; HiB5 under differentiation conditions, MTT", "value": "about two times"}, {"measurement": "cell survival rate", "setting": "HiB5 cells; berberine 250˜500 ng/ml", "value": "somewhat increased"}, {"measurement": "cytotoxicity", "setting": "HiB5 cells; berberine up to 6 μg/ml", "value": "no cytotoxicity"}, {"measurement": "number of axons longer than 300 μm", "setting": "sciatic nerves; PBS = 21.3", "value": 51.6}, {"measurement": "number of myelin sheaths longer than 200 μm", "setting": "sciatic nerves; PBS = 40", "value": 112}]}
